This is an account of results in PMC7503500, “A Structure-Activity Relationship Comparison of Imidazodiazepines Binding at Kappa, Mu, and Delta Opioid Receptors and the GABAA Receptor” (Molecules, 2020).

By pEC50 is commonly meant −log10 of the EC50, conventionally taken in molar units. As usually defined, the pKi is the Ki on a negative log10 scale, so that one unit is a factor of ten. For orientation: inhibition means how much of the control response was suppressed.

For one series, the target named is T1, human KOR (Homo sapiens, UniProt P41145).
T1 construct: expressed in transfected cells; host or cells: HEK293T
Nature of the series: cell-based.

For another series, the target named is κ opioid receptor (KOR) (Homo sapiens, UniProt P41145). Description: Radioligand competition binding, KOR ([3H]-U69593), HEK293 cell homogenates. The settings on record: for inhibition at 10 µM: read-out: KOR % (percent inhibition), at 10,000 nM; for inhibition at 10 µM / KOR % (percent inhibition): [3H]-U69593; for KOR % (percent inhibition): at 10,000 nM. (In a radioligand displacement assay an active substance lowers the binding of a labelled ligand.)

Another series concerns the target δ opioid receptor (DOR) (Homo sapiens, UniProt P41143). Description: Radioligand competition binding, DOR ([3H]-DADLE), HEK293 cell homogenates. The conditions noted are these: for inhibition at 10 µM: read-out: DOR % (percent inhibition), at 10,000 nM; for DOR % (percent inhibition): at 10,000 nM.
Another series addresses µ opioid receptor (MOR) (Homo sapiens, UniProt P35372). Nature of the series: Radioligand competition binding, MOR ([3H]-DAMGO), HEK293 cell homogenates. The conditions noted are these: for inhibition at 10 µM: read-out: MOR % (percent inhibition), at 10,000 nM; for inhibition at 10 µM / MOR % (percent inhibition): [3H]-DAMGO; for MOR % (percent inhibition): at 10,000 nM.
In series [1] the test system is synaptic benzodiazepine-sensitive receptors (BZR), GABAAR. Description: 3H-flunitrazepam binding, rat brain homogenate. The settings on record: for BZR % (percent inhibition): at 10,000 nM; for pKi: read-out: BZR (Ki).
Details of series [2]: method as in PMID 32511908. The settings on record: cited from earlier work.
Details of series [3]: method as in PMID 32511908. The conditions noted are these: both phases; cited from earlier work.
The next series relates to activated microglia. Further details: method as in PMID 32511908. The conditions noted are these: reversed by KOR antagonist norbinaltorphimine; cited from earlier work.

pEC50, pKi: −log10 of the molar value. Like-named read-outs stand apart in the source and are kept apart here.

In the case of `C#Cc1ccc2c(c1)C(c1ccccc1F)=N[C@@H](C)c1c(C(=O)OC(C)(C)C)ncn1-2` [GL-I-30], the “Efficacy in comparison to full agonist salvinorin A” value at human KOR (BRET GαoA recruitment) is 100%. On human KOR (BRET, n = 24, mean and SEM, read-out: EC50, recruitment of GαoA protein to KOR), the pEC50 was 7.49. Further, the pKi at κ opioid receptor (KOR) was 7.57; on µ opioid receptor (MOR), 5.73; in series [1] it was 6.75. In addition, the “Selectivity in respect to BZR binding” value at κ opioid receptor (KOR) (KOR vs BZR Ki) was 6.5 fold. Further, the “Opioid receptor selectivity in comparison to MOR” value at κ opioid receptor (KOR) (KOR vs MOR Ki) was 68 fold. Further, the values for the inhibition at 10 µM at κ opioid receptor (KOR), at δ opioid receptor (DOR) and at µ opioid receptor (MOR) were 95%, 7% and 54%, respectively. The “BZR % (percent inhibition)” value in series [1] was found to be 96%.

Turning to `CCc1noc(-c2ncn3c2[C@@H](C)N=C(c2ccccc2F)c2cc(C4CC4)ccc2-3)n1` [GL-IV-03], the “Impairment of sensorimotor coordination” value in series [2] is recorded as “without inducing impairment of sensorimotor coordination”. For the same compound, the “Agitation response in the formalin nociception test” value in series [3] is “alleviated the agitation response in both phases”. The “Production of nitric oxide (NO) by activated microglia” value in the series on activated microglia is “reduced the production of nitric oxide (NO)”. At κ opioid receptor (KOR), the “KOR % (percent inhibition)” value worked out at 91%. Moreover, the pKi at κ opioid receptor (KOR) (read-out: KOR (Ki), [3H]-U69593, HEK293 homogenates) is 6.63. In addition, on δ opioid receptor (DOR), the “DOR % (percent inhibition)” value was determined as 67%. Besides, on µ opioid receptor (MOR), the “MOR % (percent inhibition)” value came out at 25%. Further, in series [1], the “BZR % (percent inhibition)” value came to 65%.

`C#Cc1ccc2c(c1)C(c1ccccc1F)=N[C@H](C)c1c(C(=O)O)ncn1-2` [SH-053-2′F-R-CH3-Acid]: the inhibition at 10 µM at κ opioid receptor (KOR) came out at 16%; at δ opioid receptor (DOR) it was 0%; at µ opioid receptor (MOR), 0%. In addition, in series [1], the “BZR % (percent inhibition)” value is on record as 93%. In addition, in series [1], the pKi was 7.43.

On to `C#Cc1ccc2c(c1)C(c1ccccc1F)=N[C@H](C)c1c(C(=O)OCC)ncn1-2` [SH-053-2′F-R-CH3], for which the pKi on κ opioid receptor (KOR) was 6.62; in series [1], 6.42. Besides, the inhibition at 10 µM came out at 89% at κ opioid receptor (KOR), 32% on δ opioid receptor (DOR) and 28% on µ opioid receptor (MOR). Moreover, in series [1], the “BZR % (percent inhibition)” value is on record as 85%.

As to `C#Cc1ccc2c(c1)C(c1ccccc1F)=N[C@@H](C)c1c(C(=O)O)ncn1-2` [SH-053-2′F-S-CH3-Acid], the inhibition at 10 µM was 20% at κ opioid receptor (KOR), 18% on δ opioid receptor (DOR) and 0% at µ opioid receptor (MOR). In addition, in series [1], the “BZR % (percent inhibition)” value is listed as 93%. In series [1], the pKi is 7.54.

`C#Cc1ccc2c(c1)C(c1ccccc1F)=N[C@@H](C)c1c(C(=O)OCC)ncn1-2` [SH-053-2′F-S-CH3]: the pKi was 7.05 at κ opioid receptor (KOR) and 6.95 in series [1]. For the same compound, the inhibition at 10 µM came out at 93% on κ opioid receptor (KOR), 36% on δ opioid receptor (DOR) and 7% at µ opioid receptor (MOR). The “BZR % (percent inhibition)” value in series [1] is 92%.

Consider `CCOC(=O)c1ncn2c1[C@@H](C)N=C(c1ccccc1F)c1cc(Br)ccc1-2` [SH-I-047], for which the inhibition at 10 µM on κ opioid receptor (KOR) came to 82%; on δ opioid receptor (DOR) it was 0%. Besides, at µ opioid receptor (MOR), the “MOR % (percent inhibition)” value came to 16%. In addition, the “BZR % (percent inhibition)” value in series [1] was determined as 84%. The pKi in series [1] was 6.62.

Regarding `CCOC(=O)c1ncn2c1[C@H](C)N=C(c1ccccc1F)c1cc(Br)ccc1-2` [SH-I-048B], the “KOR % (percent inhibition)” value on κ opioid receptor (KOR) turned out to be 95%. The “DOR % (percent inhibition)” value on δ opioid receptor (DOR) is given as 0%. The “MOR % (percent inhibition)” value at µ opioid receptor (MOR) worked out at 0%. Moreover, in series [1], the “BZR % (percent inhibition)” value is reported as 61% and the pKi was 7.02.

In the case of `Fc1ccccc1C1=NCc2c(-c3cnco3)ncn2-c2ccc(Br)cc21` [SH-I-85], the pKi is 6.79 at κ opioid receptor (KOR) and 7.96 in series [1]. Moreover, the results for the inhibition at 10 µM at κ opioid receptor (KOR), at δ opioid receptor (DOR) and at µ opioid receptor (MOR) were 91%, 33% and 16%, respectively. For the same compound, in series [1], the “BZR % (percent inhibition)” value is reported as 99%.

`C#Cc1ccc2c(c1)C(c1ccccn1)=NCc1c(C(=O)O)ncn1-2` [SR-II-54]: the inhibition at 10 µM worked out at 9% on κ opioid receptor (KOR), 1% at δ opioid receptor (DOR) and 8% on µ opioid receptor (MOR). Also, the “BZR % (percent inhibition)” value in series [1] is on record as 80%. Besides, the pKi in series [1] was 7.16.
